# Measurements published in patent US20220144853A1, “IMIDAZOLINE DERIVATIVES AS CXCR4 MODULATORS” (Université de Paris, priority 2019, published 2022).
# Where a name gives a salt, the structure may show the parent alone.
row,melting point [°C],Compound
1,167 to 175,"CC1(C)CN2C(CSC3=N[C@H]4CCCC[C@@H]4N3)=CSC2=N1 (as salt: hydrochloride) [Example 4, 3-((((3aS,7aS)-3a,4,5,6,7,7a-hexahydro-1H-benzo[d]imidazol-2-yl)thio)methyl)-6,6-dimethyl-5,6-dihydroimidazo[2,1-b]thiazole dihydrochloride]"
2,> 250,"CC1(C)CN2C(CSC3=N[C@@H]4CCCC[C@@H]4N3)=CSC2=N1 (as salt: hydrochloride) [Example 5, 3-((((3R,7aS)-3a,4,5,6,7,7a-hexahydro-1H-benzo[d]imidazol-2-yl)thio)methyl)-6,6-dimethyl-5,6-dihydroimidazo[2,1-b]thiazole dihydrochloride]"
3,140 to 144,"CC1(C)CN2C(CSC3=NCCN3)=CSC2=N1 (as salt: hydrochloride) [Example 8, 3-(((4,5-dihydro-1H-imidazol-2-yl)thio)methyl)-6,6-dimethyl-5,6-dihydroimidazo[2,1-b]thiazole dihydrochloride]"
4,128 to 132,"CN1CCN=C1SCC1=CSC2=NC(C)(C)CN12 (as salt: hydrochloride) [Example 11, 6,6-dimethyl-3-(((1-methyl-4,5-dihydro-1H-imidazol-2-yl)thio)methyl)-5,6-dihydroimidazo[2,1-b]thiazole dihydrochloride]"
5,> 250,"CC1(C)CN2C(CSC3=NCCCCN3)=CSC2=N1 (as salt: hydrochloride) [Example 12, 6,6-dimethyl-3-(((4,5,6,7-tetrahydro-1H-1,3-diazepin-2-yl)thio)methyl)-5,6-dihydroimidazo[2,1-b]thiazole dihydrochloride]"
6,95 to 104,"CCCCC1CN=C(SCC2=CSC3=NC(C)(C)CN23)N1 (stereo not shown) (as salt: hydrochloride) [Example 13, 3-(((5-butyl-4,5-dihydro-1H-imidazol-2-yl)thio)methyl)-6,6-dimethyl-5,6-dihydroimidazo[2,1-b]thiazole dihydrochloride]"
7,242 to 245,"CC1(C)CN=C(SCC2=CSC3=NCCCN23)N1 (as salt: hydrochloride) [Example 14, 3-(((5,5-dimethyl-4,5-dihydro-1H-imidazol-2-yl)thio)methyl)-6,7-dihydro-5H-thiazolo[3,2-a]pyrimidine dihydrochloride]"
8,244 to 247,"CC1(C)CN=C(SCC2=CSC3=NCCCCN23)N1 (as salt: hydrochloride) [Example 15, 3-(((5,5-dimethyl-4,5-dihydro-1H-imidazol-2-yl)thio)methyl)-5,6,7,8-tetrahydrothiazolo[3,2-a][1,3]diazepine dihydrochloride]"
9,185 to 205,"CC1(C)CN2C(CSC3=NC(C)(C)C(C)(C)N3)=CSC2=N1 (as salt: hydrochloride) [Example 16, 6,6-dimethyl-3-(((4,4,5,5-tetramethyl-4,5-dihydro-1H-imidazol-2-yl)thio)methyl)-5,6-dihydroimidazo[2,1-b]thiazole dihydrochloride]"
10,83 to 103,"CC1(C)CN2C(CSC3=NCC(Cc4ccccc4)N3)=CSC2=N1 (stereo not shown) (as salt: hydrochloride) [Example 17, 3-(((5-benzyl-4,5-dihydro-1H-imidazol-2-yl)thio)methyl)-6,6-dimethyl-5,6-dihydroimidazo[2,1-b]thiazole dihydrochloride]"
11,63 to 74,"CC1(C)CN=C(SCC2=CSC3=NC(Cc4ccccc4)CN23)N1 (stereo not shown) (as salt: hydrochloride) [Example 18, 6-benzyl-3-(((5,5-dimethyl-4,5-dihydro-1H-imidazol-2-yl)thio)methyl)-5,6-dihydroimidazo[2,1-b]thiazole dihydrochloride]"
12,210 to 218,"CCCCC1CN2C(CSC3=NCC(C)(C)N3)=CSC2=N1 (stereo not shown) (as salt: hydrochloride) [Example 19, 6-butyl-3-(((4,4-dimethyl-4,5-dihydro-1H-imidazol-2-yl)thio)methyl)-5,6-dihydroinidazo[2,1-b]thiazole dihydrochloride]"
13,140 to 160,"CC1(C)CN=C(SCC2=CSC3=NC(C)(C)C(C)(C)N23)N1 (as salt: hydrochloride) [Example 20, 3-(((5,5-dimethyl-4,5-dihydro-1H-imidazol-2-yl)thio)methyl)-5,5,6,6-tetramethyl-5,6-dihydroimidazo[2,1-b]thiazole dihydrochloride]"
14,220 to 230,"CC1(C)CN=C(SCC2=CSC3=NCCN23)N1 (as salt: hydrochloride) [Example 21, 3-(((5,5-dimethyl-4,5-dihydro-1H-imidazol-2-yl)thio)methyl)-5,6-dihydroimidazo[2,1-b]thiazole dihydrochloride]"
15,> 250,"CC1(C)CN2C(CSC3=N[C@@H]4CCC[C@@H](C4)N3)=CSC2=N1 (as salt: hydrochloride) [Example 22, 3-((((1R,5S)-2,4-diazabicyclo[3.3.1]non-2-en-3-yl)thio)methyl)-6,6-dimethyl-5,6-dihydroimidazo[2,1-b]thiazole dihydrochloride]"
16,> 250,"CC1(C)CN2C(CSC3=N[C@H]4COC[C@H]4N3)=CSC2=N1 (as salt: hydrochloride) [Example 25, (3aR,6aS)-2-(((6,6-dimethyl-5,6-dihydroinidazo[2,1-b]thiazol-3-yl)methyl)thio)-3a,4,6,6a-tetrahydro-1H-furo[3,4-d]imidazole dihydrochloride]"
17,> 250,"C1=C(CSC2=NCCN2)N2CCCN=C2S1 (as salt: hydrochloride) [Example 26, 3-(((4,5-dihydro-1H-imidazol-2-yl)thio)methyl)-6,7-dihydro-5H-thiazolo[3,2-a]pyrimidine dihydrochloride]"
18,> 250,"CC1(C)CN=C(SCC2=CSC3=NC(C)(C)CN23)NC1 (as salt: hydrochloride) [Example 28, 3-(((5,5-dimethyl-1,4,5,6-tetrahydropyrimidin-2-yl)thio)methyl)-6,6-dimethyl-5,6-dihydroimidazo[2,1-b]thiazole dihydrochloride]"
19,> 250,"C1=C(CSC2=NCCCN2)N2CCCN=C2S1 (as salt: hydrochloride) [Example 29, 3-(((1,4,5,6-tetrahydropyrimidin-2-yl)thio)methyl)-6,7-dihydro-5H-thiazolo[3,2-a]pyrimidine dihydrochloride]"
20,176 to 178,"CCCCC1CN=C(SCC2=CSC3=NCCN23)N1 (stereo not shown) (as salt: hydrochloride) [Example 30, 3-(((5-butyl-4,5-dihydro-1H-imidazol-2-yl)thio)methyl)-5,6-dihydroimidazo[2,1-b]thiazole dihydrochloride]"
21,169 to 175,"CC1(C)CN=C2SC=C(CSC3=NCC(C)(C)N3)N2C1 (as salt: hydrochloride) [Example 34, 3-(((5,5-dimethyl-4,5-dihydro-1H-imidazol-2-yl)thio)methyl)-6,6-dimethyl-6,7-dihydro-5H-thiazolo[3,2-a]pyrimidine dihydrochloride]"
22,100 to 102,"C1=C(CSC2=NCCCN2)N2CCN=C2S1 (as salt: hydrochloride) [Example 35, 3-(((1,4,5,6-tetrahydropyrimidin-2-yl)thio)methyl)-5,6-dihydroimidazo[2,1-b]thiazole dihydrochloride]"
